Assay results as given in the pKa sets of Baltruschat and Czodrowski (2020).

Conditions: acidic group

SMILES	pKa
C[NH+](C)c1ccc(/C=C/c2cc[n+](O)cc2)cc1	1.05
CC(C)(C)S	11.1
Cc1nn(-c2ccccc2)c(O)c1C	11.3
CC(=O)c1ccc(Br)cc1	18
Oc1ccc2nc3ccccc3nc2c1	7.45
O=C(O)C1CC[NH2+]C1 (stereo not given)	3.38
CC(=O)c1c(C)cc(C)cc1C	10.7
CC1CCC[C@H](C(C)C(=O)O)C1 (stereo not given in full)	4.59
O=C(O)c1cccc(C2CC2)c1	4.28
CS(=O)(=O)c1ccc(O)cc1	7.83
Oc1c(I)cc(Cl)c2cccnc12	7.9
Nc1nc(N)c2[nH]cnc2n1	10.8
C[n+]1cc(O)cc2ccccc21	5.42
COC(=O)c1cc(O)c(O)c(O)c1C[NH+](C)C	6.8
O=C(O)c1cc(=O)cc(-c2ccccc2)o1	1.51
Cc1cc(-c2c(C)noc2O)on1	3.2
CCCC(=O)c1cc(C(C)=O)n[nH]1	9.28

SMILES	pKa
CSc1nc2ncncc2[nH]1	7.67
Cc1ccc(O)c(CN(C)C)c1	11.2
CCOC(=O)C1(CCC(=O)O)CCC(=O)NC1=O (stereo not given)	4.35
O=C(O)C[NH+](CC(=O)O)Cc1ccccc1O	2.2
CCC(CC(C)C)OO (stereo not given)	12.8
C[n+]1cccc2ccc(O)cc21	5.56
O=CC1=CC=CC1	7.4
O=C(O)CCc1ccc(Cl)cc1	4.65
O=C(O)c1ccc(F)cc1	4.16
CCc1c(O)nn(-c2ccccc2)c1C	12.3
COP(=O)([O-])NS(C)(=O)=O	6.55
Cn1cc(O)[nH+]c1N	4.9
C(COCCc1nnn[nH]1)OCCc1nnn[n-]1	5.37
Cc1ccc2[nH]c(CO)nc2c1	11.5
CN(C)C(=O)OCC(=O)O	3.01
CC(C)C(=O)CC=O	6.68

Same assay, conditions: basic group

SMILES	pKa
Nc1ccc2ccccc2c1[N+](=O)[O-]	-0.92
CCOCCn1c(CN2CC[NH+](CCCCn3cccn3)CC2)nc2ccccc21	4.8
Cc1ccc(S(=O)(=O)N(C)CCC(=N)N)cc1	11.5
CC(C)(C)N1NC2CCC1CC2	9.54
Oc1ccc2nc3ccccc3nc2c1	2.6
Nc1nc([S-])c2ncn([C@H]3O[C@@H](CO)[C@H](O)[C@@H]3O)c2n1	8.34
CCOC(=O)C1(c2ccccc2)CCN(CC)CC1	9.03
Cc1c2ccccc2c(CN2CCOCC2)c2ccccc12	6.6
Clc1cn[nH]c1	1.24
CCN(CC)S(=O)(=O)c1ccc(N)cc1	1.75
CCCOC(=O)c1ccc(N)cc1	2.49
Oc1c(I)cc(Cl)c2cccnc12	2.61
CN(C)CCCN	10
CCN(CC)CCOC(=O)c1ccccc1	8.9
[NH3+]CC(=O)NCCc1c[nH]cn1	6.76
C=O	1.15
CCCCCC/[NH+]=C/c1c(C)cnc(C)c1O	3.39
Nc1nc(N)c2[nH]cnc2n1	5.05
CN(C)c1nc2cc3c(cc2[nH]1)CCCC3	7.65
[NH3+]C(CC(=O)[O-])c1ccccn1 (stereo not given)	2.94
Cc1cc(N)nc(N)n1	7.65

SMILES	pKa
CNCCN	10.4
c1cncc(C2=NCCC2)c1	8.77
CSc1nc2ncncc2[nH]1	2.95
O=[N+]([O-])c1cnc([O-])[nH+]c1[O-]	5.42
Cc1ccc(O)c(CN(C)C)c1	8.68
CCN(CC)CC(=O)Nc1ccc(C)cc1	8.13
COc1nc2ccccc2c2ccccc12	2.38
O=C([O-])[C@@H]1Cc2[nH]cnc2C[NH2+]1	4.73
Cc1ccc(/N=N/c2ccc(N(C)C)cc2)cc1C	2.37
Cc1cnc(N)s1	5.71
CNCC[NH2+]C	7.29
Nc1cccnn1	5.19
NNc1nncc2ccccc12	7.25
Nc1nccc(-c2csc(N)n2)n1	4
N#Cc1ccc(N)c2ccccc12	1.2
NCCCCCCCCCC(=O)[O-]	11
N[C@H]1CCCC[C@@H]1N	9.75
CCCCNCC[NH2+]CCCC	7.46
Cc1ccc2[nH]c(CO)nc2c1	5.64
NCc1ccc(O)cc1	9.14
CN1CCCCCN1C	6.66
